Like-named read-outs stand apart in the source and are kept apart here.
Legend:
Type in all cases: biochemical
[1] = target: T1, Kdr (Homo sapiens, UniProt P35968); assay: Kinase inhibition assay (33P transfer), Kdr; details: Table 3, class symbols; read-out: KDR-1
T1 construct: Kinases are expressed as either kinase domains or full length constructs; made in house
In short: (§1)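 Measured by scintillation: radiolabelled phosphate added by tagged recombinant kinases to poly(Glu,Tyr) 4:1 or poly(Arg,Ser) 3:1 attached to microtiter wells, counted once free label was washed away with 0.5% phosphoric acid.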

[2] = target: T2, Lck (Homo sapiens, UniProt P06239); assay: Kinase inhibition assay (33P transfer), Lck
T2 construct: Kinases are expressed as either kinase domains or full length constructs; made in house
In short: as §1

[3] = target: T3, AKT (Homo sapiens, UniProt Q9Y243); assay: Kinase inhibition assay (33P transfer), AKT
T3 construct: Kinases are expressed as either kinase domains or full length constructs; made in house
In short: as §1

[4] = target: T4, Itk (Homo sapiens, UniProt Q08881); assay: Kinase inhibition assay (33P transfer), Itk; details: Table 3, class symbols; read-out: Itk-1
T4 construct: Kinases are expressed as either kinase domains or full length constructs; made in house
T4 sequence (Q08881 1-620): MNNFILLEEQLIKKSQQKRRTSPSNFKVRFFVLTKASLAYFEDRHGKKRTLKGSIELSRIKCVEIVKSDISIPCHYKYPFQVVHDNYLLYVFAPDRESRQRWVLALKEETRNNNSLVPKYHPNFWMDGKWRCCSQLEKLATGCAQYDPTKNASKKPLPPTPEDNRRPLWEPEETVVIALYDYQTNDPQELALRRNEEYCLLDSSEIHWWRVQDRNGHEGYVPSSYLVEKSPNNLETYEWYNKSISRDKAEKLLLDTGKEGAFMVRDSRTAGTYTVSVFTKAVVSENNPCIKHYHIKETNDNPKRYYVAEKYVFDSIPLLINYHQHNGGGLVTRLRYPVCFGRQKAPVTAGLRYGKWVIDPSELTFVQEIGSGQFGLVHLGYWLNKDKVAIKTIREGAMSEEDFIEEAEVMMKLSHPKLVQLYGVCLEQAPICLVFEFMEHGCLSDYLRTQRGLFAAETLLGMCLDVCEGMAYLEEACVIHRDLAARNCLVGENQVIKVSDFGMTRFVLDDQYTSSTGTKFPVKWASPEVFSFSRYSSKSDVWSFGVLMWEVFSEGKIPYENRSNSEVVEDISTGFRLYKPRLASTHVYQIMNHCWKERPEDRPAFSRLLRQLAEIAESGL
In short: (§2)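 Recombinant kinase domains or full-length GST- or His-tagged constructs, from E. coli or baculovirus/High Five cells, sometimes with regulatory polypeptides. Transfer of 33P from ATP to plate-bound poly(Glu,Tyr) 4:1 or poly(Arg,Ser) 3:1 counted by liquid scintillation after phosphoric acid wash; IC50 is the concentration halving incorporation.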

[5] = target: T5, EGFR (Homo sapiens, UniProt P00533); assay: Kinase inhibition assay (33P transfer), EGFR; details: Table 2, class symbols A-E; read-out: EGFR-1
T5 construct: Kinases are expressed as either kinase domains or full length constructs; made in house
In short: as §2

[6] = target: T6, c-Met (Homo sapiens, UniProt P08581); assay: Kinase inhibition assay (33P transfer), c-Met; details: Table 2, class symbols A-E; read-out: Met-1
T6 construct: Kinases are expressed as either kinase domains or full length constructs; made in house
In short: as §2

[7] = target: T7, Zap-70 (Homo sapiens, UniProt P43403); assay: Kinase inhibition assay (33P transfer), Zap-70
T7 construct: Kinases are expressed as either kinase domains or full length constructs; made in house
T7 sequence (P43403 1-619): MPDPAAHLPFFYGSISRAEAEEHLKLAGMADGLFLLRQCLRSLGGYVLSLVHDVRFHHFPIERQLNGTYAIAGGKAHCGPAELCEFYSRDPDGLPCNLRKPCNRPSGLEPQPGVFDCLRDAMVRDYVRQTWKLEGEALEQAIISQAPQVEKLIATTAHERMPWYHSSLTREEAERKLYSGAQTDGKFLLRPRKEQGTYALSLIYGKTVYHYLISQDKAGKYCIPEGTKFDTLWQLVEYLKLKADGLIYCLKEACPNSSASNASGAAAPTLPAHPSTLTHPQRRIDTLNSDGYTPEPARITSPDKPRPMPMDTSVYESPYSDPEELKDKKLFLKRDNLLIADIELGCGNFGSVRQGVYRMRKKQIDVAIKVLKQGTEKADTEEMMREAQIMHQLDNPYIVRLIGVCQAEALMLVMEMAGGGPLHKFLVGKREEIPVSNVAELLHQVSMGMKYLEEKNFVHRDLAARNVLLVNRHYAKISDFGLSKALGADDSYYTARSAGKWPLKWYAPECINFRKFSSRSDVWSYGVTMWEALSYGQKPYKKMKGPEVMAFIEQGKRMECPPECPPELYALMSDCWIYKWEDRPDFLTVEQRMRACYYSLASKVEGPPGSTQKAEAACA
In short: as §1

[8] = target: T8, ErbB2 (Homo sapiens, UniProt P04626); assay: Kinase inhibition assay (33P transfer), ErbB2; details: read-out: ErbB2-2
T8 construct: Kinases are expressed as either kinase domains or full length constructs; made in house
In short: as §2

[9] = target: T9, IGFR-1 (Homo sapiens, UniProt P08069); assay: Kinase inhibition assay (33P transfer), IGFR-1; details: Table 2, class symbols A-E
T9 construct: Kinases are expressed as either kinase domains or full length constructs; made in house

[10] = Table 3, class symbols, read-out: Lck-1
[11] = Table 2, class symbols A-E, read-out: AKT3-1
[12] = Table 3, class symbols, read-out: Zap-1

T9 sequence (P08069 31-1367): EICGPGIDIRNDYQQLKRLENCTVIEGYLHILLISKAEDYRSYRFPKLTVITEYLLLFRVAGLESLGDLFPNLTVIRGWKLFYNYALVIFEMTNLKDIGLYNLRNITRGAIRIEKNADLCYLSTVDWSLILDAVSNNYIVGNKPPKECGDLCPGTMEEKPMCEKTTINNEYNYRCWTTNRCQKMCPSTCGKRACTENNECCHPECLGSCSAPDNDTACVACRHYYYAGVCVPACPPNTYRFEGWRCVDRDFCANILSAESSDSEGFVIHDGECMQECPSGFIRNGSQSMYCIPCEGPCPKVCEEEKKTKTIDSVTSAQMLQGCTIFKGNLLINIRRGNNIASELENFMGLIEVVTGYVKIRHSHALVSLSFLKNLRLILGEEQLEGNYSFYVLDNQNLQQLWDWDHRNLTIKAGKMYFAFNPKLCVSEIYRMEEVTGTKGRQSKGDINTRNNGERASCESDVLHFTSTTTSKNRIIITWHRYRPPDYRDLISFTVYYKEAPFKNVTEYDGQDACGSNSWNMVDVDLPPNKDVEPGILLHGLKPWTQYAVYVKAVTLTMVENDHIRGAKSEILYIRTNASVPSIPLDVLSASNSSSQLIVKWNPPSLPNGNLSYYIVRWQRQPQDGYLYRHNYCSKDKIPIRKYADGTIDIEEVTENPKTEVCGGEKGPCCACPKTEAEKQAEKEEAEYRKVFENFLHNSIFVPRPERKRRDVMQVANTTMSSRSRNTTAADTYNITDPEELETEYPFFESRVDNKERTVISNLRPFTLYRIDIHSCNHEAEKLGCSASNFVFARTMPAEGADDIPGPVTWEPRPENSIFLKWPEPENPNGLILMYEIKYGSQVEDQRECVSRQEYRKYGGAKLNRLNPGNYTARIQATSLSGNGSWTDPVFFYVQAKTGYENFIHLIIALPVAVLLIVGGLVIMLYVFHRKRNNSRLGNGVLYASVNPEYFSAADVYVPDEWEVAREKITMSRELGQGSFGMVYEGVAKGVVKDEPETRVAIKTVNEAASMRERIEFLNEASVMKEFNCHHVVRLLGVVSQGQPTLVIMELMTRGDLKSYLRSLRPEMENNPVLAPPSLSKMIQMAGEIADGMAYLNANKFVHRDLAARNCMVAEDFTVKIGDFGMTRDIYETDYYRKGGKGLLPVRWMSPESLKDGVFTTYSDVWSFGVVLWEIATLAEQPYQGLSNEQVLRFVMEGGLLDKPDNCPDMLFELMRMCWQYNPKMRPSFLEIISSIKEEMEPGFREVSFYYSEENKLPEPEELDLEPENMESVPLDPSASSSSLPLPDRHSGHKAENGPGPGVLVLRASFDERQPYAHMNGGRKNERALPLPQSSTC
T8 sequence (P04626 23-1255, species assumed): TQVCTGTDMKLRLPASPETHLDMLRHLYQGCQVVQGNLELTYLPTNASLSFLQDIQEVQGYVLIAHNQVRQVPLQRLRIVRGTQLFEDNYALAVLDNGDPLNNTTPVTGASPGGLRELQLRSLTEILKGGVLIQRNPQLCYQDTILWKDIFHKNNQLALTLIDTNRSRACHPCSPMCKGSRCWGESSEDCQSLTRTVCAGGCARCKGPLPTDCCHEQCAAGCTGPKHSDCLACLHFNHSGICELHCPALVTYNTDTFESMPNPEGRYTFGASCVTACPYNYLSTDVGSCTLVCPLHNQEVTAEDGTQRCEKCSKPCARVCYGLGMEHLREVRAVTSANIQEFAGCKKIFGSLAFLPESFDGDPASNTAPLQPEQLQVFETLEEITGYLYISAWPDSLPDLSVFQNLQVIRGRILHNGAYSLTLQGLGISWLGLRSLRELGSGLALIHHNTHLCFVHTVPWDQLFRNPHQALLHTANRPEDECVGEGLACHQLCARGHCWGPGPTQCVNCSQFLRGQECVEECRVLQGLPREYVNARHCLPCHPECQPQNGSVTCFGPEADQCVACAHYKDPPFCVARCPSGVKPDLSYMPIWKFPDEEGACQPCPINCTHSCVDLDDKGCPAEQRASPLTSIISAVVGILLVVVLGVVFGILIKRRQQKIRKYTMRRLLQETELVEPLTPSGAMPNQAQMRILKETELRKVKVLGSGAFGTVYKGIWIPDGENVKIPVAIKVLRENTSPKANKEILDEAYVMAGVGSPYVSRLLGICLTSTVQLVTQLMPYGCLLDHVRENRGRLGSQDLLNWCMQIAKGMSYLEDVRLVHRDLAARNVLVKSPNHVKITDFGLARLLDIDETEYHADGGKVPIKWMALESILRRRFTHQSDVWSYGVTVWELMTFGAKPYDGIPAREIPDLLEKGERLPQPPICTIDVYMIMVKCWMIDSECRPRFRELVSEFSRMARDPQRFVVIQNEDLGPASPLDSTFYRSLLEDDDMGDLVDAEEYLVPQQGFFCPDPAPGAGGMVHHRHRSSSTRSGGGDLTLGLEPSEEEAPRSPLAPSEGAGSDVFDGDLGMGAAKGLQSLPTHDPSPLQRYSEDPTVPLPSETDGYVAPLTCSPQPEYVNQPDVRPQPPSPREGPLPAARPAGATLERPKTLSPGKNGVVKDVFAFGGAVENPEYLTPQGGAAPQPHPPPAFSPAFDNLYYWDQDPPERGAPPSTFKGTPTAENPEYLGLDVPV
T2 sequence (P06239 whole entry, species assumed, the tested form may be a part): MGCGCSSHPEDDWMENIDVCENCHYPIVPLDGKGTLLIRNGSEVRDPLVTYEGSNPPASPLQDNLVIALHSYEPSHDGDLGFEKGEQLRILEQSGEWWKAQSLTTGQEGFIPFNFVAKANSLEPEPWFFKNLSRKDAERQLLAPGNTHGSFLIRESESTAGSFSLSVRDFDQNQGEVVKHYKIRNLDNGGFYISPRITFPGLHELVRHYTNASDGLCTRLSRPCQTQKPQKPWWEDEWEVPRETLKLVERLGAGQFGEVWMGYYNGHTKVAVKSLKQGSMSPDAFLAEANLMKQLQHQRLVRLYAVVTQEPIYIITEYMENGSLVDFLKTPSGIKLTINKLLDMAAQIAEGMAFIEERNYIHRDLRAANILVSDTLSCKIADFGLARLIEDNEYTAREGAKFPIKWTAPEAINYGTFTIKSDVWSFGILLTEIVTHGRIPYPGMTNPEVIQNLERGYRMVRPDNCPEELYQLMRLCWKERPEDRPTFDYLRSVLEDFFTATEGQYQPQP
T1 sequence (P35968 20-1356, species assumed): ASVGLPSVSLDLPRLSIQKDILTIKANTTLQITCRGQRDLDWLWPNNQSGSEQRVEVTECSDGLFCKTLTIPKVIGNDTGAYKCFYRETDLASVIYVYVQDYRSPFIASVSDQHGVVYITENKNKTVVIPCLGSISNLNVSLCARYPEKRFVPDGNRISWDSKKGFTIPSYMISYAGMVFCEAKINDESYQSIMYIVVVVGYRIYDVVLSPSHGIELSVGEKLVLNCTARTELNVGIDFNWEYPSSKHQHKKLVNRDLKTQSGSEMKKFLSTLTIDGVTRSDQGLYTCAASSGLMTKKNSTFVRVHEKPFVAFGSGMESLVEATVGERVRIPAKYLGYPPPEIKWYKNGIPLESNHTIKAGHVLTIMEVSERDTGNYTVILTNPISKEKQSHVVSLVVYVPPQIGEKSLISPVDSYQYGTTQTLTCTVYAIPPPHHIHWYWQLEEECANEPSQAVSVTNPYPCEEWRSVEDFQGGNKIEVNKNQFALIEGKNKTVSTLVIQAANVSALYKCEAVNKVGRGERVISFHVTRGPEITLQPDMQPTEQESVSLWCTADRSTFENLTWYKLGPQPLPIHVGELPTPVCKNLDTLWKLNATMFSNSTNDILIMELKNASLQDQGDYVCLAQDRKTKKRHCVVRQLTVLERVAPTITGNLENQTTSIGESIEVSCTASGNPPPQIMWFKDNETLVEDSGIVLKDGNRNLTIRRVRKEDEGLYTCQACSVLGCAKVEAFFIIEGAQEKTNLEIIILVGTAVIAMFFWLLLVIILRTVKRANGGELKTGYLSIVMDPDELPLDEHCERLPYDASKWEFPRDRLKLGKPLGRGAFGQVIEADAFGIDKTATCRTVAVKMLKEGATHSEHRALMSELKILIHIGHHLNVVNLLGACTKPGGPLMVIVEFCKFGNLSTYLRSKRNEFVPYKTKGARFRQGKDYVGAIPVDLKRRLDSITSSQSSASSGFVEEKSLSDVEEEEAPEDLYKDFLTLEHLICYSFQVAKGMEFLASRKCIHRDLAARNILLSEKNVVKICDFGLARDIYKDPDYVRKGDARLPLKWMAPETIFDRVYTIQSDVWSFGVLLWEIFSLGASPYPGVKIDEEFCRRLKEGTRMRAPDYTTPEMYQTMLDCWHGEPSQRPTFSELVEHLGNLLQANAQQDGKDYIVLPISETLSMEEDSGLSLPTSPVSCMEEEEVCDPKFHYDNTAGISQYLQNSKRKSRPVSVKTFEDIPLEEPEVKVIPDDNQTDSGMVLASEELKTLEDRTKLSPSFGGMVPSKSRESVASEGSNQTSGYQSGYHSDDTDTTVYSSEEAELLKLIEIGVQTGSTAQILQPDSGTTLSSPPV
T3 sequence (Q9Y243 whole entry, the tested form may be a part): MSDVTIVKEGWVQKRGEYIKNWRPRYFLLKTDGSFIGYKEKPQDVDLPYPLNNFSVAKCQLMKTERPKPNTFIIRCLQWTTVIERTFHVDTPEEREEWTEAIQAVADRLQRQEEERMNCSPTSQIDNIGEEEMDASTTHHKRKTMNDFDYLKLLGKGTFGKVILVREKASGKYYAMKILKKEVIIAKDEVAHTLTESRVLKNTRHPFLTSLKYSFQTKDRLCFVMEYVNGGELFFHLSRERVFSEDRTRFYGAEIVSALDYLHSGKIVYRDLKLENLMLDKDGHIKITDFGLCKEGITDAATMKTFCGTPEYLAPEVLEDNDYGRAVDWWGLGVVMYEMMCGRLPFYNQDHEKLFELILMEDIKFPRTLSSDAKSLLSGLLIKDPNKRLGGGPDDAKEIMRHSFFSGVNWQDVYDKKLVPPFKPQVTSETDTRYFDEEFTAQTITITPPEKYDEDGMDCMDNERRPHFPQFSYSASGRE

| SMILES | IC50 [1] [µM] | IC50 [2, 10] [µM] | IC50 [3, 11] [µM] | IC50 [4] [µM] | IC50 [5] [µM] | IC50 [6] [µM] | IC50 [7, 12] [µM] | IC50 [8] [µM] | IC50 [9] [µM] | IC50 ([2]; Lck-1, Table 3, class symbols) [µM] | IC50 ([3]; AKT3-1, Table 2, class symbols A-E) [µM] | IC50 [7] [µM] |
| --- | --- | --- | --- | --- | --- | --- | --- | --- | --- | --- | --- | --- |
| COc1ccc(Nc2ncnc(NCCc3ccc(Cl)c(Cl)c3)n2)cc1OC [Compound 859] | 5.71 to 8.33 | > 10.7 | 0.952 to 5.71 | 0.952 to 5.71 | 0.952 to 5.71 | 0.952 to 5.71 | 0.952 to 5.71 | 0.952 to 5.71 | 5.71 to 8.33 |  |  |  |
| COc1ccc(Nc2ncnc(NCc3ncc(C(F)(F)F)cc3Cl)n2)cc1OC [Compound 858] | > 10.2 | > 10.2 | > 10.2 | > 10.2 | 5.44 to 7.94 | > 10.2 | > 10.2 | > 10.2 | > 10.2 |  |  |  |
| CN(c1cccc(Cl)c1)c1ncnc(Nc2ccc(OCCO)cc2)n1 [Compound 641] | 1.08 to 6.45 | 1.08 to 6.45 | > 12.1 | > 12.1 | < 1.08 | < 1.08 | > 12.1 | 1.08 to 6.45 | 1.08 to 6.45 |  |  |  |
| COc1ccc(Nc2ncnc(NCC(=O)c3ccccc3)n2)cc1OC [Compound 857] | > 12.3 | > 12.3 | > 12.3 | > 12.3 | 6.57 to 9.58 | > 12.3 | > 12.3 | 6.57 to 9.58 | > 12.3 |  |  |  |
| CC(C)Nc1ncccc1-c1ncnc(Nc2ccc(N3CCOCC3)cc2)n1 [Compound 1112] | < 1.02 | 1.02 to 6.13 | > 11.5 | 8.94 to 11.5 | 1.02 to 6.13 | 1.02 to 6.13 | > 11.5 | 1.02 to 6.13 | > 11.5 |  |  |  |
| COc1ccc(Nc2ncnc(N(C)c3ccccc3Cl)n2)cc1OC [Compound 865] | 6.45 to 9.41 | 1.08 to 6.45 | > 12.1 | > 12.1 | < 1.08 | 1.08 to 6.45 | > 12.1 | 1.08 to 6.45 | > 12.1 |  |  |  |
| Clc1cccc(Nc2ncnc(Nc3ccc4[nH]ncc4c3)n2)c1 [Compound 134] | < 1.18 | 1.18 to 7.11 | 1.18 to 7.11 | < 1.18 | < 1.18 | < 1.18 | 1.18 to 7.11 | 1.18 to 7.11 | < 1.18 |  |  |  |
| CCOc1ccc(Nc2ncnc(N(C)c3cccc(Cl)c3)n2)cc1OCC [Compound 640] | 1 to 6 | 1 to 6 | > 11.3 | > 11.3 | < 1 | 1 to 6 | > 11.3 | < 1 | > 11.3 |  |  |  |
| COc1cc(Nc2ncnc(-c3cccnc3N[C@@H](C)c3ccccc3)n2)cc(OC)c1OC [Compound 1111] | < 0.872 | < 0.872 | > 9.81 | > 9.81 | 0.872 to 5.23 | > 9.81 | > 9.81 | 5.23 to 7.63 | > 9.81 |  |  |  |
| COC(=O)c1cccc(Nc2ncnc(-n3c(NCc4ccccc4)nc4ccccc43)n2)c1 [Compound 1067] | < 0.886 | > 9.97 | > 9.97 | > 9.97 | 0.886 to 5.32 | > 9.97 | > 9.97 | 0.886 to 5.32 | > 9.97 |  |  |  |
| c1ccc(Nc2ncccc2-c2ncnc(Nc3ccc(N4CCOCC4)cc3)n2)cc1 [Compound 1113] | 0.94 to 5.64 | 5.64 to 8.23 | > 10.6 | > 10.6 | 0.94 to 5.64 | 0.94 to 5.64 | 0.94 to 5.64 | 0.94 to 5.64 | > 10.6 |  |  |  |
| COC(=O)c1cccc(Nc2ncnc(-n3c(Cl)nc4ccccc43)n2)c1 [Compound 1066] | 6.3 to 9.19 | > 11.8 | 6.3 to 9.19 | > 11.8 | 6.3 to 9.19 | 6.3 to 9.19 | > 11.8 |  | > 11.8 |  |  |  |
| COc1cc(Nc2ncnc(-c3cccnc3Nc3ccccc3)n2)cc(OC)c1OC [Compound 1092] |  |  |  | > 10.5 | > 10.5 | > 10.5 |  | > 10.5 | > 10.5 | > 10.5 | > 10.5 | > 10.5 |
| CC(C)Nc1ncccc1-c1ncnc(Nc2cccc(CO)c2)n1 [Compound 1114] | 1.19 to 7.13 | 1.19 to 7.13 | > 13.4 | 10.4 to 13.4 | 10.4 to 13.4 | 10.4 to 13.4 | 10.4 to 13.4 |  | > 13.4 |  |  |  |
| COc1ccc(Nc2ncnc(N(C)c3ccc(OC(F)(F)F)cc3)n2)cc1OC [Compound 866] | 0.949 to 5.7 | 5.7 to 8.31 | > 10.7 | > 10.7 | 0.949 to 5.7 | 0.949 to 5.7 | > 10.7 |  | > 10.7 |  |  |  |
| c1ccc(Nc2ncccc2-c2ncnc(Nc3ccc4[nH]ncc4c3)n2)cc1 [Compound 1117] | < 1.05 | > 11.8 | > 11.8 | > 11.8 | 9.2 to 11.8 | 1.05 to 6.31 | > 11.8 |  | > 11.8 |  |  |  |
